Experimental data from ChEMBL document CHEMBL1201862, “PubChem BioAssay data set” (2004).
Active and inactive are the calls of the source.

What was measured:
[1] = alpha-synuclein stem-loop luciferase translation blockers – H4 neuroglioma cells, luminescence, confirmation (AID 1988); format: functional, cell-based
[2] = Luminescence Cell-Based Dose Response HTS to Identify Inhibitors of 5'UTR Stem-Loop Driven Prion Protein mRNA Translation in H4 Neuroglioblastoma Cells. [Related pubchem assays: 1827 (Project Summary), 1813 (Primary HTS)]; format: functional
[3] = luciferase reporter signal suppression in cells – H4 neuroglioma cells, luminescence, dose response (AID 1990); format: functional, cell-based
[4] = target: T1, Streptokinase A (Streptococcus pyogenes serotype M1, UniProt P10520); assay: viability-normalized secreted streptokinase activity reduction – plasminogen activation absorbance, OD405, dose response (AID 1914); format: functional, Streptococcus pyogenes M1 GAS;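 also: secreted streptokinase activity via plasminogen activation per viability signal from cell pellet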
T1 sequence (P10520 whole entry): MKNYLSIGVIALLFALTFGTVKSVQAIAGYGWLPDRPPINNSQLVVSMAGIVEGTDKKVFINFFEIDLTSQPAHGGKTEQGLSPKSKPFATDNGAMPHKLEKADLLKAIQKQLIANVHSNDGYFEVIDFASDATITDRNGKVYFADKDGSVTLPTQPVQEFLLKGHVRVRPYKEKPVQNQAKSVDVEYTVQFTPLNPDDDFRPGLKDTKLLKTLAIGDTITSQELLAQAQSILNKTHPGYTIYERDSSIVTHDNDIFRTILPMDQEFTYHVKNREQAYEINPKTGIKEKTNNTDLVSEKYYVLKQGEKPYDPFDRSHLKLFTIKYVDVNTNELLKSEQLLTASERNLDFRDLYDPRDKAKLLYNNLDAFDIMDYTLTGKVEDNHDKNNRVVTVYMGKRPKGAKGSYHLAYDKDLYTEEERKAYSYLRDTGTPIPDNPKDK

[5] = system: Streptococcus; assay: GAS UMAA2166 growth inhibition – luminescence, BacTiterGlo, counter-screen for streptokinase expression inhibitor project, dose response (AID 1915); format: functional, organism-based;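 also: potency for reduction of bacterial viability or growth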
[6] = system: H9c2; assay: cells; format: functional, cell-based; conditions: Rattus norvegicus, H9c2, Myocardium;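 also: confirmatory concentration-response retest of ultra-high-throughput screening hits for modulation of myocardial damage; cell death induced by hydrogen peroxide oxidative stress; compound pretreatment for 60 min then peroxide exposure for 2 h; potency is for protecting the cells against peroxide damage rather than for killing them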
[7] = system: Streptococcus sp. 'group A'; assay: Streptococcus pyogenes SK(-)GAS viability under kanamycin – luminescence, BacTiterGlo, confirmation, counter-screen for streptokinase expression inhibitor project, dose response (AID 1900); format: functional, organism-based
[8] = target: T2, Sentrin-specific protease 7 (Homo sapiens, UniProt Q9BQF6); format: functional;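 also: Luminescence-based dose-response confirmation of ultra-high-throughput screening hits, measuring inhibition of SENP7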
T2 sequence (Q9BQF6 whole entry): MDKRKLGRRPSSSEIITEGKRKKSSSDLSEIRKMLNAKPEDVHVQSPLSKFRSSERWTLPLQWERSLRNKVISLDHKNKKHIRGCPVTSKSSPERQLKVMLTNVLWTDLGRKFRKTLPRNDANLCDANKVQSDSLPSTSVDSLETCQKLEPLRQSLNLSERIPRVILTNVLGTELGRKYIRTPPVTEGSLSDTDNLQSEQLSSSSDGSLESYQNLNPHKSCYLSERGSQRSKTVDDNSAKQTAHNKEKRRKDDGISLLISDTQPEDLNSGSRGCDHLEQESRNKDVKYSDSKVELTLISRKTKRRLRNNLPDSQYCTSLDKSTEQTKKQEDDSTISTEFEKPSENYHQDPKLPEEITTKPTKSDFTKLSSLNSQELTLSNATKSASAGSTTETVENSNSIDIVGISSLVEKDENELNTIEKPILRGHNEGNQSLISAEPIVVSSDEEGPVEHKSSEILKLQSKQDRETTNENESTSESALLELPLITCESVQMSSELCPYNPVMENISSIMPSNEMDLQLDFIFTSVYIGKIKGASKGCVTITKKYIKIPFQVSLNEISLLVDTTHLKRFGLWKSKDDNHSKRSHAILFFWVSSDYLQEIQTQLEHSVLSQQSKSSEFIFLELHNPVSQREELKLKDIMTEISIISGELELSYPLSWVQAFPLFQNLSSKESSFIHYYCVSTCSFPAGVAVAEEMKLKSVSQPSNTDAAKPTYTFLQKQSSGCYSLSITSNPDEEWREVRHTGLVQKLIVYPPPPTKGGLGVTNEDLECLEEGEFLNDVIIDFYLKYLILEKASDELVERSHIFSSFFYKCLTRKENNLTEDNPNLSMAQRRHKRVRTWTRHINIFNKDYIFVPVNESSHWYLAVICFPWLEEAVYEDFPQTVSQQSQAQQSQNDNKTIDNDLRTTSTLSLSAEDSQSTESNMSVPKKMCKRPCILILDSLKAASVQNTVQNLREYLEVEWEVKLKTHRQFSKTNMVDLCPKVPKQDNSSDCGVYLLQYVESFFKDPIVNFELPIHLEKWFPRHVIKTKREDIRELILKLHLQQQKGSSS

[9] = target: T3, Sentrin-specific protease 8 (Homo sapiens, UniProt Q96LD8); format: functional;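 also: luminescence read-out of SENP8 inhibition, dose-response confirmation following an ultra-high-throughput screen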
T3 sequence (Q96LD8 whole entry): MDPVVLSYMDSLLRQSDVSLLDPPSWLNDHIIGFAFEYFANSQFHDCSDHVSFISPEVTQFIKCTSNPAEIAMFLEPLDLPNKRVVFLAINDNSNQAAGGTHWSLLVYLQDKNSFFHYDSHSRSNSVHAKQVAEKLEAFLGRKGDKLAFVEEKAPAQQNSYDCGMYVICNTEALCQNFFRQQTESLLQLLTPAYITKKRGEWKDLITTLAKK

[10] = target: T4, Sentrin-specific protease 6 (Homo sapiens, UniProt Q9GZR1); format: functional;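 also: Luminescence-based dose-response confirmatory assay of SENP6 inhibition, following up an ultra-high-throughput screen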
T4 sequence (Q9GZR1 whole entry): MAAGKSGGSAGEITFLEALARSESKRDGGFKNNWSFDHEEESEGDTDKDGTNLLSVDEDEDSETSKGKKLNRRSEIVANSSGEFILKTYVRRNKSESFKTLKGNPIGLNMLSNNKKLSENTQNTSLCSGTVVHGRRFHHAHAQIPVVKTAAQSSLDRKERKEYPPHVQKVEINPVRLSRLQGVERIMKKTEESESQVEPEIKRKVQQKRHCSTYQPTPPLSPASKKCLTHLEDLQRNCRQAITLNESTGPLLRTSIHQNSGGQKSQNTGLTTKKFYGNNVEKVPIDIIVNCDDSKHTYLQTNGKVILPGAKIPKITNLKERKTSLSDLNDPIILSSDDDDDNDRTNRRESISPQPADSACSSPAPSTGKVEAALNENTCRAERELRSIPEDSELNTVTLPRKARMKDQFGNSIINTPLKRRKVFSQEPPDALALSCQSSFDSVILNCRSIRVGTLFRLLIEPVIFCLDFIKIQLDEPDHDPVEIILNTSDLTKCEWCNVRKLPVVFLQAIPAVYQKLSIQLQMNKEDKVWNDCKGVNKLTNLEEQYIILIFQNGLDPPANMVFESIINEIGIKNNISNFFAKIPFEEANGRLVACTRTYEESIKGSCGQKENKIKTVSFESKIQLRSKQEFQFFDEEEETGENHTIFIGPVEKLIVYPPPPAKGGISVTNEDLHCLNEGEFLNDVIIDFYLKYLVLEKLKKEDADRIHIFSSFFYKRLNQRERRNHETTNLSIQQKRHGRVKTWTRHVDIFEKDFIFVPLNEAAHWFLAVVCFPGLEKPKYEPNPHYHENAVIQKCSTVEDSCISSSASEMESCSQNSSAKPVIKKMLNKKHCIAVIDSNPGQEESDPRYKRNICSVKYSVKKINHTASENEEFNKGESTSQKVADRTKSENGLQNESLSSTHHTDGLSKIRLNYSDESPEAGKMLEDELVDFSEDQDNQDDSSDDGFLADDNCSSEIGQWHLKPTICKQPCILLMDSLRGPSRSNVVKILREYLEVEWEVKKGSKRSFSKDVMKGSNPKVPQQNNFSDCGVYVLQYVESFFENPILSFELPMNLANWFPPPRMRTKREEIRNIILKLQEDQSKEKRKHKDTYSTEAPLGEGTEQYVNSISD

[11] = target: T5, Microphthalmia-associated transcription factor (Homo sapiens, UniProt O75030); assay: reducers of TRPM1 reporter luminescence, concentration series – cell-based, SK-MEL-5, cherry-picked, set 3, MITF inhibitor project, dose response (AID 493073); format: functional;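 also: SK-MEL-5 melanoma cells with luciferase driven by the MITF target TRPM1 promoter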
T5 sequence (O75030 whole entry): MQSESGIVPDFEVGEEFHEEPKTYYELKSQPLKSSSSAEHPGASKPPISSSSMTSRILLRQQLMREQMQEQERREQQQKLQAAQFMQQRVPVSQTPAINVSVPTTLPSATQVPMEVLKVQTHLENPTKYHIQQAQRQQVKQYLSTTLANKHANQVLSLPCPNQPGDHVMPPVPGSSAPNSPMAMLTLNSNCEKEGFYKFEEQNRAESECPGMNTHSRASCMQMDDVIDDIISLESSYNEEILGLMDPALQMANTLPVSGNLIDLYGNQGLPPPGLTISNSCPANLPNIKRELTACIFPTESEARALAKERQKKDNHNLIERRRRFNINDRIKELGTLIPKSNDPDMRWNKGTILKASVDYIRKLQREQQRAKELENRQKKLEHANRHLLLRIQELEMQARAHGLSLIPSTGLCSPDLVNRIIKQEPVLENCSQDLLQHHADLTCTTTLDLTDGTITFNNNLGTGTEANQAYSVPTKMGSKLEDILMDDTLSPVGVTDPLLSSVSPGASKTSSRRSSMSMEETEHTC

[12] = target: Glyceraldehyde-3-phosphate dehydrogenase (Homo sapiens, UniProt P04406)
Sequence of Glyceraldehyde-3-phosphate dehydrogenase (P04406 whole entry): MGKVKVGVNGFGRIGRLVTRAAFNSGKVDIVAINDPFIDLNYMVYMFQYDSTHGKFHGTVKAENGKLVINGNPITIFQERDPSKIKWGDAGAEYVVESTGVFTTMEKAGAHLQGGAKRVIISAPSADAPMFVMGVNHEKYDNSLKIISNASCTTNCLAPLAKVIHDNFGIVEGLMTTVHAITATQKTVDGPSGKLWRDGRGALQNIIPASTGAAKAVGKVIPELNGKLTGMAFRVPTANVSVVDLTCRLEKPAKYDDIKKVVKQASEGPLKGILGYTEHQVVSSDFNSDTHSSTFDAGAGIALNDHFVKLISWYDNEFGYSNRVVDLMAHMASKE

Row | Structure (SMILES) | EC50 [1] | EC50 [2] | EC50 [3] | IC50 [6] | other results
1 | CC(NC(=O)COC(=O)c1ccc2c(c1)S(=O)(=O)N=C1CCCCCN12)C12CC3CC(CC(C3)C1)C2 (configuration not stated) | 15.5 µM (active) | > 120 µM (not active) | > 120 µM (not active) |  | 
2 | Cc1cc(C)c(C(=O)CC(=O)c2ccccc2Cl)c(O)c1 |  |  |  | 11.7 µM (active) | EC50 [4]: > 150 µM (not active); EC50 [5]: 23.5 µM (active); EC50 [7]: 7.46 µM (active)
3 | O=C(CCc1nnc(-c2ccc(-c3ccccc3)cc2)o1)NCCc1ccccn1 |  | 21.4 µM (active) |  |  | 
4 | Cn1c(/C(C#N)=C/c2ccc(O)cc2)nc2ccccc21 |  |  |  |  | IC50 [8]: 12 µM (active); IC50 [9]: 45 µM (active); IC50 [10]: 28.3 µM (active)
5 | Cc1onc(-c2ccccc2Cl)c1C(=O)NC(=S)Nc1ccc(C(C)(C)C)cc1 | 107 µM (active) | > 120 µM (not active) | > 120 µM (not active) |  | 
6 | Cc1c(CCC(=O)N2CCC[C@H]2C(=O)O)c(=O)oc2c(C)c3oc4c(c3cc12)CCCC4 | 14 µM (active) | 16.2 µM (active) | 15.9 µM (active) |  | 
7 | COc1cccc(-n2nc3c(S)nnc(C)c3c2C)c1 | > 120 µM (not active) | > 120 µM (not active) | 16.2 µM (active) |  | 
8 | COc1ccccc1N1C(=O)N(C(C)=O)C2C1Nc1ccccc1N2C (configuration not stated) |  |  |  |  | AC50 [11]: 10.5 µM (active)
9 | O=C(Nc1ccc(CN2CCOCC2)cc1)c1ccc(-c2cccc([N+](=O)[O-])c2)o1 |  |  |  | > 79 µM (inactive) | 
10 | Cc1sc2nc(COC(=O)Cc3ccccc3)nc(O)c2c1C |  |  |  | 23.4 µM (active) | 
11 | COc1cc2c(cc1OC)C(SC)=NC1(CCCC1)C2 |  |  |  |  | AC50 [11]: 9.44 µM (active)
12 | COc1ccc(Cl)cc1S(=O)(=O)Nc1cnc2ccccc2c1 |  |  |  |  | IC50 [12]: > 10 µM (inconclusive)
13 | Cc1ccc(CNc2cc(-c3nn4c(C)nnc4s3)ccc2C)s1 | 22.5 µM (active) | 56.1 µM (active) | 9.69 µM (active) |  | 
14 | COc1ccccc1NS(=O)(=O)c1cc(NC(=O)CCc2nc(O)c3ccccc3n2)ccc1C |  |  |  | > 79 µM (inactive) | 
15 | COc1ccccc1CN(C(=O)CNC(=O)c1ccco1)C(C(=O)NCC1CCCO1)c1ccccc1 (configuration not stated) |  |  |  | > 79 µM (inactive) | 
16 | Nc1ccc(-c2cc3ccccc3c(=O)o2)cc1 |  |  |  |  | AC50 [11]: 0.293 µM (active)
17 | CCOC(=O)C1=C(NC(=O)c2oc3ccccc3c2COC)Nc2ccccc2N=C1C |  |  |  | > 79 µM (inactive) | 
18 | O=C(N/N=C/c1ccccn1)c1cc(-c2ccc(Cl)s2)n[nH]1 |  |  |  | > 79 µM (inactive) | 
19 | COc1cc(C(=O)N/N=C/c2ccc(OC(=O)c3ccccc3Cl)cc2)ccc1O |  |  |  | > 79 µM (inactive) | 
20 | COc1cccc(/C=N/NC(=O)N/N=C/c2cccc(OC)c2O)c1O | 9.36 µM (active) | > 120 µM (not active) | 15.5 µM (active) |  | 
